{
  "source": "patent US12630565B2",
  "about": "“DNA-dependent protein kinase inhibitor” (DIZAL (JIANGSU) PHARMACEUTICAL CO., LTD., priority 2019, dated 2026)",
  "key": {"[1]": {"target": "Full length human DNAPK protein (Homo sapiens, UniProt P78527)", "assay": "DNA-PK enzymatic assay (TR-FRET)", "assay_type": "biochemical", "settings": "10 μM ATP, 1.6 μM peptide substrate"}, "[2]": {"tested_on": "Rat hepatocyte", "assay": "Metabolic stability assay (rat hepatocyte Clint)", "assay_type": "in vitro ADME", "settings": "1 μM compound, cryopreserved hepatocytes 1 million cells per mL", "outline": "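Compound at 1 μM incubated with cryopreserved rat hepatocytes, 1 million cells/mL, sampled 0–120 min with acetonitrile quench and LC-MS/MS quantitation. CLint (μL/min/E6) derived from elimination rate constant and half-life of parent disappearance, scaled by cell concentration.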"}, "[3]": {"assay": "Metabolic stability assay (human microsomal Clint)", "assay_type": "in vitro ADME", "settings": "1 mg/mL microsomes, 1 mM NADPH, 37° C.; for Human liver microsomal CLint: 1 μM compound", "outline": "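Compound (1 μM) incubated at 37 °C with pooled human liver microsomes (1 mg/mL) and 1 mM NADPH in 100 mM phosphate, pH 7.4. Samples quenched in acetonitrile at 0–30 min and analysed by LC-MS/MS for parent loss. CLint reported in μl/min/mg.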"}, "[4]": {"tested_on": "MDCKII-MDR1-BCRP cell monolayers", "assay": "MDCKII-MDR1-BCRP efflux assay", "assay_type": "in vitro ADME", "settings": "5 μM compound, 120 min, HBSS pH 7.4", "outline": "(§1)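 Bidirectional (A-B, B-A) transport of 5 μM compound across MDCKII-MDR1-BCRP monolayers in HBSS, 25 mM HEPES pH 7.4, ~37° C. for 120 min, triplicate; donor and receiver concentrations measured, monolayer integrity checked with Lucifer yellow. Papp and efflux ratio calculated.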"}, "[5]": {"assay": "Brain-blood-barrier penetration assay (short oral absorption model, Kp,uu)", "assay_type": "in vivo", "settings": "male Han Wistar rats, oral 10 mg/kg in 1% methylcellulose, AUC(brain)/AUC(plasma)×(fu,brain/fu.plasma); for Kp uu: male, Han Wistar, rat, brain and plasma, po, 10 mg/kg", "description": "It is believed that Kp,uu, the relationship between concentrations of unbound drug in brain and in plasma, is the key to prediction of CNS action and should be the main parameter measured and optimized for in drug discovery (Di L et al., Journal of Medicinal Chemistry [2013], 56: 2-12).\nIn vitro plasma and brain binding assay was carried out by using equilibrium dialysis method with semi-permeable membrane. Plasma and diluted brain homogenate (1:4 with DPBS pH7.4) were spiked with 5 μM test compound (in triplicate) and dialyzed against equal volume of 150 μL 100 mM PBS buffer (pH7.4) at 37° C. for 18 hours in a slowly rotated plate. At the end of incubation, a 50 μL aliquot from the receiver side and a 5 μL from the donor chamber were taken. The 5 μL sample was further diluted with 45 μL of blank plasma or brain homogenate. Paired samples were matrix-matched with either buffer or blank plasma/brain homogenate and mixed for 2 min, and then precipitated with 150 μL cold acetonitrile with 100 ng/mL tolbutamide as internal standard. After centrifuging at 4000 rpm for 20 min, supernatant was diluted with 0.1% formic acid aqueous solution and analyzed for LC/MS/MS (API 4000, Applied Biosystems, Foster City). Unbound fraction (fu) of test compound in the brain homogenate and diluted plasma were calculated by the ratio of the buffer side response to the brain homogenate/plasma side response, and unbound fraction (fu,pl and fu,br) of test compound in non-diluted plasma and tissue were calculated from measured fu in homogenate and plasma with the following equation: fu,bl (fu,br)=(1/D)/[(1/fu−1)+1/D)]. D is dilution factor.\nA Short oral absorption (SOA) model is an in-vivo screening model to identify brain penetration of a compound. Six male Han Wistar rats purchased from Beijing Vital River were orally dosed with the compound at 10 mg/kg in 1% methylcellulose At 0.5, 1, 2, 4, 7 and 16 hour post-dose, cerebral spinal fluid (CSF) was collected from cisterna magna. Plasma samples will be processed for plasma by centrifugation at approximately 4° C., 3,000 g within half an hour of collection. Plasma samples will be removed to a labeled tube and stored at −80 degree until analysis. Brain tissue was harvested and homogenized in 3× volume of 100 mM phosphate buffered saline (pH7.4). All samples were stored at ˜−70° C. prior to LC/MS/MS analysis.\nStandards were prepared by spiking blank plasma, brain homogenate and artificial CSF covering 0.5 to 500 ng/mL. Homogenized brain tissue along with plasma samples were precipitated by adding 3-fold volume of cold acetonitrile containing internal standard (40 ng/mL Dexamethasone and 40 ng/mL Diclofenac), and 10 μL of CSF samples were precipitated with 100 μL of cold acetonitrile containing internal standard. After 2 min vortex and 5 min centrifugation at 14,000 rpm, supernatant was analyzed by LC/MS/MS (API 4000, Applied Biosystems, Foster City). Two sets of standard curves were run at the beginning and end of each batch from plasma sample analysis. For brain and CSF samples, one standard curve was analyzed along with test samples.\nTotal brain levels, expressed as brain/plasma ratio (Kp) were measured by AUCbrain/AUCplasma in rodents after oral administration. Free fraction of test compound in biological matrix was determined by in vitro plasma and brain binding assay. Kp,uu was calculated by the following equation: Kp,uu=AUC (brain)/AUC (plasma)×(fu,brain/fu.plasma)."}, "[6]": {"tested_on": "MDR1, BCRP", "assay": "MDCKII-MDR1-BCRP efflux assay", "assay_type": "in vitro ADME", "settings": "dog, pH 7.4, 5 μM compound, HBSS pH 7.4, read-out: MDCK-Mdr1-BCRP efflux ratio", "outline": "as §1"}},
  "data": [
    {"smiles": "COC1CCC(n2nc(C)c3cnc(Nc4cn5ncnc5cc4C)nc32)C1", "note": "(single isomer, unassigned) [Example 111, 1-(3-methoxycyclopentyl)-3-methyl-N-(7-methyl-[1,2,4]triazolo[1,5-a]pyridin-6-yl)-1H-pyrazolo[3,4-d]pyrimidin-6-amine]", "values": [
      {"measurement": "IC50", "setting": "[1]", "result": 1.1, "unit": "nM"},
      {"measurement": "Rat hepatocyte CLint (μl/min/10^−6 cells)", "setting": "[2]", "result": 17.0, "unit": "μl/min/10^−6 cells"},
      {"measurement": "Human liver microsomal CLint", "setting": "[3]", "result": 68.5, "unit": "µL/min/mg"},
      {"measurement": "MDCK-Mdr1-BCRP efflux ratio", "setting": "[4]", "result": 1.8},
      {"measurement": "Kp, uu (brain)", "setting": "[5]", "result": 0.36}
    ]},
    {"smiles": "Cc1cc2ncnn2cc1Nc1ncc2c(C)nn(C3CCCOCC3)c2n1", "note": "(single isomer, unassigned) [Example 34, 3-methyl-N-(7-methyl-[1,2,4]triazolo[1,5-a]pyridin-6-yl)-1-(oxepan-4-yl)-1H-pyrazolo[3,4-d]pyrimidin-6-amine]", "values": [
      {"measurement": "IC50", "setting": "[1]", "result": 1.2, "unit": "nM"},
      {"measurement": "Rat hepatocyte CLint (μl/min/10^−6 cells)", "setting": "[2]", "result": 12.7, "unit": "μl/min/10^−6 cells"},
      {"measurement": "Human liver microsomal CLint", "setting": "[3]", "result": 31.4, "unit": "µL/min/mg"},
      {"measurement": "MDCK-Mdr1-BCRP efflux ratio", "setting": "[4]", "result": 3.5},
      {"measurement": "Kp uu", "setting": "[5]", "result": 0.24}
    ]},
    {"smiles": "Cc1cc2ncnn2cc1Nc1ncc2c(C)nn([C@H]3C[C@H]4CC[C@@H](C3)O4)c2n1", "note": "[Example 106, 1-((1R,3r,5S)-8-oxabicyclo[3.2.1]octan-3-yl)-3-methyl-N-(7-methyl-[1,2,4]triazolo[1,5-a]pyridin-6-yl)-1H-pyrazolo[3,4-d]pyrimidin-6-amine]", "values": [
      {"measurement": "IC50", "setting": "[1]", "result": 0.9, "unit": "nM"},
      {"measurement": "Rat hepatocyte CLint (μl/min/10^−6 cells)", "setting": "[2]", "result": 17.6, "unit": "μl/min/10^−6 cells"},
      {"measurement": "microsomal CLint at 1 μM", "setting": "[3]; human, pooled human liver microsomes, pH 7.4, 1 μM compound", "result": 68.9, "unit": "µL/min/mg"},
      {"measurement": "efflux ratio at 120 min, 5 μM", "setting": "[6]", "result": 2.1},
      {"measurement": "Kp uu", "setting": "[5]", "result": 0.19}
    ]},
    {"smiles": "COC1CCC(n2nc(C)c3cnc(Nc4cn5ncnc5cc4C)nc32)C1", "note": "(single isomer, unassigned) [Example 110, 1-(3-methoxycyclopentyl)-3-methyl-N-(7-methyl-[1,2,4]triazolo[1,5-a]pyridin-6-yl)-1H-pyrazolo[3,4-d]pyrimidin-6-amine]", "values": [
      {"measurement": "IC50", "setting": "[1]", "result": 1.8, "unit": "nM"},
      {"measurement": "Rat hepatocyte CLint (μl/min/10^−6 cells)", "setting": "[2]", "result": 17.4, "unit": "μl/min/10^−6 cells"},
      {"measurement": "Human liver microsomal CLint", "setting": "[3]", "result": 64.8, "unit": "µL/min/mg"},
      {"measurement": "MDCK-Mdr1-BCRP efflux ratio", "setting": "[4]", "result": 1.7},
      {"measurement": "Kp uu", "setting": "[5]", "result": 0.25}
    ]}
  ]
}
